Experimental data published in ChEMBL document CHEMBL5380807, “Imidazo[1,2-a]Pyridine Derivatives as Novel Dual-Target Inhibitors of ABCB1 and ABCG2 for Reversing Multidrug Resistance” (J Med Chem, 2023).
Active and inactive are the calls of the source. No cut-off for these calls is given here.

Key:
K562/A02 [1] = assay: Cytotoxicity against human K562/A02 cells overexpressing ABCB1 assessed as decrease in cell survival rate at 5 uM incubated for 72 hrs by MTS assay; format: toxicity, cell-based; details: k562/a02, 72 h
K562/A02 [2] = assay: Reversal of ABCB1 mediated adriamycin resistance in human K562/A02 cells overexpressing ABCB1 assessed as reduction in survival rate at 5 uM preincubated for 1 hrs followed by adriamycin addition and measured after 72 hrs by MTS assay; format: functional; details: time 73.0 hrs
K562/A02 [3] = assay: Reversal of ABCB1 mediated adriamycin resistance in human K562/A02 cells overexpressing ABCB1 assessed as reduction in survival rate at 1 uM preincubated for 1 hrs followed by adriamycin addition and measured after 72 hrs by MTS assay; format: functional; details: time 73.0 hrs
K562 [4] = assay: Cytotoxicity against human K562 cells assessed as decrease in cell survival rate at 5 uM incubated for 72 hrs by MTS assay; format: toxicity, cell-based; details: k562, 72 h
K562 [5] = assay: Reversal of ABCB1 mediated adriamycin resistance in human K562 cells assessed as reduction in survival rate at 5 uM preincubated for 1 hrs followed by adriamycin addition and measured after 72 hrs by MTS assay; format: functional, cell-based; details: time 73.0 hrs
K562 [6] = assay: Reversal of ABCB1 mediated adriamycin resistance in human K562 cells assessed as reduction in survival rate at 1 uM preincubated for 1 hrs followed by adriamycin addition and measured after 72 hrs by MTS assay; format: functional, cell-based; details: time 73.0 hrs
[7] = Cytotoxicity against human K562/A02 cells overexpressing ABCB1 assessed as decrease in cell survival rate incubated for 72 hrs by MTS assay; format: toxicity, cell-based
[8] = Cytotoxicity against human K562 cells assessed as decrease in cell survival rate incubated for 72 hrs by MTS assay; format: toxicity, cell-based
K562/A02 [9] = assay: Reversal of ABCB1 mediated adriamycin resistance in human K562/A02 overexpressing ABCB1 assessed as decrease in survival rate at 1.25 to 5 uM preincubated for 1 hrs followed by adriamycin addition and measured after 72 hrs by MTS assay; format: functional, cell-based; details: dose 1.25-5 µM, time 73.0 hrs
K562 [10] = assay: Reversal of ABCB1 mediated adriamycin resistance in human K562 assessed as decrease in survival rate at 1.25 to 5 uM preincubated for 1 hrs followed by adriamycin addition and measured after 72 hrs by MTS assay; format: functional, cell-based; details: dose 1.25-5 µM, time 73.0 hrs

For `COc1cc2c(cc1OC)CN(CC(=O)Nc1ccc(-c3nc4ccccn4c3COCc3ccccc3)cc1)CC2`, the Activity (K562/A02 [1]) was “Non-Toxic”, the Activity (K562/A02 [2]) was “Active” and the Activity (K562/A02 [3]) was “Active”. The Activity (K562 [4]) was “Non-Toxic”, the Activity (K562 [5]) was “inactive” and the Activity (K562 [6]) was “inactive”.
With `COc1cc2c(cc1OC)CN(Cc1c(-c3ccc(NC(=O)CN4CCN(C)CC4)cc3)nc3ccccn13)CC2` the IC50 at 72 h [7] was > 100 µM and the IC50 at 72 h [8] was 50.7 µM.
With `COc1cc2c(cc1OC)CN(CC(=O)Nc1ccc(-c3nc4ccccn4c3CN3CCN(c4ccc(OC(F)(F)F)cc4)CC3)cc1)CC2` the Activity (K562/A02 [1]) was “Non-Toxic”, the Activity (K562/A02 [2]) was “Active” and the Activity (K562/A02 [3]) was “Active”. The Activity (K562 [4]) was “Non-Toxic”, the Activity (K562 [5]) was “inactive” and the Activity (K562 [6]) was “inactive”.
For `O=C(CCN1CCN(c2ccccc2)CC1)Nc1ccc(-c2nc3ccccn3c2CN2CCN(c3ccccc3)CC2)cc1`, the Activity (K562/A02 [9]) was “Active”, the IC50 at 72 h [7] was 22.9 µM and the IC50 at 72 h [8] was 58.8 µM. The Activity (K562 [10]) was “inactive”.
For `COc1cc2c(cc1OC)CN(Cc1c(-c3ccc(NC(=O)COc4ccc(OC(F)(F)F)cc4)cc3)nc3ccccn13)CC2`, the IC50 at 72 h [7] was 40.9 µM and the IC50 at 72 h [8] was 29.9 µM.
In the case of `COc1cc2c(cc1OC)CN(Cc1c(-c3ccc(NC(=O)Cn4cnnc4)cc3)nc3ccccn13)CC2`, the IC50 at 72 h [7] was > 100 µM and the IC50 at 72 h [8] was > 100 µM.
In the case of `COc1cc2c(cc1OC)CN(Cc1c(-c3ccc(NC(=O)COc4ccccc4Br)cc3)nc3ccccn13)CC2`, the IC50 at 72 h [7] was > 100 µM and the IC50 at 72 h [8] was > 100 µM.
With `COc1ccc(COCc2c(-c3ccc(NC(=O)CN4CCc5cc(OC)c(OC)cc5C4)cc3)nc3ccccn23)cc1` the Activity (K562/A02 [1]) was “Non-Toxic”, the Activity (K562/A02 [2]) was “Active” and the Activity (K562/A02 [3]) was “Active”. The Activity (K562 [4]) was “Non-Toxic”, the Activity (K562 [5]) was “inactive” and the Activity (K562 [6]) was “inactive”.
For `C=CCc1ccc(OCC(=O)Nc2ccc(-c3nc4ccccn4c3CN3CCc4cc(OC)c(OC)cc4C3)cc2)c(OC)c1`, the IC50 at 72 h [7] was > 100 µM and the IC50 at 72 h [8] was > 100 µM.
For `COc1cc2c(cc1OC)CN(CC(=O)Nc1ccc(-c3nc4ccccn4c3COCc3ccccc3Cl)cc1)CC2`, the Activity (K562/A02 [1]) was “Non-Toxic”, the Activity (K562/A02 [2]) was “Active” and the Activity (K562/A02 [3]) was “Active”. For the same molecule, the Activity (K562 [4]) was “Non-Toxic”, the Activity (K562 [5]) was “inactive” and the Activity (K562 [6]) was “inactive”.
For `CCN(CC)Cc1c(-c2ccc(NC(=O)CN3CCc4cc(OC)c(OC)cc4C3)cc2)nc2ccccn12`, the Activity (K562/A02 [1]) was “Non-Toxic”, the Activity (K562/A02 [2]) was “Active” and the Activity (K562/A02 [3]) was “Active”. For the same molecule, the Activity (K562 [4]) was “Non-Toxic”, the Activity (K562 [5]) was “inactive” and the Activity (K562 [6]) was “inactive”.
For `COc1cc2c(cc1OC)CN(Cc1c(-c3ccc(NC(=O)CN4CCOCC4)cc3)nc3ccccn13)CC2`, the IC50 at 72 h [7] was > 100 µM and the IC50 at 72 h [8] was > 100 µM.
For `COc1cc2c(cc1OC)CN(Cc1c(-c3ccc(NC(=O)COc4ccc(C)cc4)cc3)nc3ccccn13)CC2`, the Activity (K562/A02 [9]) was “Active”, the IC50 at 72 h [7] was > 100 µM and the IC50 at 72 h [8] was > 100 µM. The Activity (K562 [10]) was “inactive”.
In the case of `COc1cc2c(cc1OC)CN(CC(=O)Nc1ccc(-c3nc4ccccn4c3CN3CCC(=O)CC3)cc1)CC2`, the Activity (K562/A02 [1]) was “Non-Toxic”, the Activity (K562/A02 [2]) was “Active” and the Activity (K562/A02 [3]) was “Active”. For the same molecule, the Activity (K562 [4]) was “Non-Toxic”, the Activity (K562 [5]) was “inactive” and the Activity (K562 [6]) was “inactive”.
In the case of `O=C(CN1CCOCC1)Nc1ccc(-c2nc3ccccn3c2CN2CCN(c3ccccc3)CC2)cc1`, the IC50 at 72 h [7] was > 100 µM and the IC50 at 72 h [8] was > 100 µM.
With `COc1cc2c(cc1OC)CN(CC(=O)Nc1ccc(-c3cn4ccccc4n3)cc1)CC2` the Activity (K562/A02 [1]) was “Non-Toxic”, the Activity (K562/A02 [2]) was “Active” and the Activity (K562/A02 [3]) was “Active”. The Activity (K562 [4]) was “Non-Toxic”, the Activity (K562 [5]) was “inactive” and the Activity (K562 [6]) was “inactive”.
With `COc1cc2c(cc1OC)CN(CCC(=O)Nc1ccc(-c3nc4ccccn4c3CN3CCN(c4ccccc4)CC3)cc1)CC2` the Activity (K562/A02 [9]) was “Active”, the IC50 at 72 h [7] was 13.6 µM and the IC50 at 72 h [8] was 3.31 µM. For the same molecule, the Activity (K562 [10]) was “Active”.
With `COc1cc2c(cc1OC)CN(Cc1c(-c3ccc(NC(=O)COc4ccc(Cl)cc4)cc3)nc3ccccn13)CC2` the Activity (K562/A02 [9]) was “Active”, the IC50 at 72 h [7] was 83 µM and the IC50 at 72 h [8] was > 100 µM. The Activity (K562 [10]) was “inactive”.
For `O=C(/C=C/c1ccc(Cl)cc1)Nc1ccc(-c2nc3ccccn3c2CN2CCN(c3ccccc3)CC2)cc1`, the IC50 at 72 h [7] was > 100 µM and the IC50 at 72 h [8] was > 100 µM.
With `COc1cc2c(cc1OC)CN(Cc1c(-c3ccc(NC(=O)/C=C/c4cc(OC)c(OC)c(OC)c4)cc3)nc3ccccn13)CC2` the IC50 at 72 h [7] was > 100 µM and the IC50 at 72 h [8] was > 100 µM.
In the case of `CCN(CC)CC(=O)Nc1ccc(-c2nc3ccccn3c2CN2CCc3cc(OC)c(OC)cc3C2)cc1`, the IC50 at 72 h [7] was > 100 µM and the IC50 at 72 h [8] was > 100 µM.
Work on `CCN(CC)CC(=O)Nc1ccc(-c2nc3ccccn3c2CN2CCN(c3ccccc3)CC2)cc1` yielded an IC50 at 72 h [7] of 40 µM and an IC50 at 72 h [8] of 24.3 µM.
For `O=C(CCCN1CCN(c2ccccc2)CC1)Nc1ccc(-c2nc3ccccn3c2CN2CCN(c3ccccc3)CC2)cc1`, the Activity (K562/A02 [9]) was “Active”, the IC50 at 72 h [7] was 7.07 µM and the IC50 at 72 h [8] was 3.72 µM. For the same molecule, the Activity (K562 [10]) was “Active”.
